Assay results as given in US10501552B2, “Multivalent molecules comprising DR5-binding domains” (MacroGenics, Inc., priority 2015, dated 2019).

Columns and labels:
[1] = target: cynomolgus monkey DR5 (His-tagged); assay: Biacore analysis of binding kinetics; design: ka / kd: unit not given here; conditions: tested as DR5×CD3 mAb 2 diabody
Protocol: Bispecific DR5×CD3 diabodies were incubated with His-tagged DR5 and the kinetics of binding was determined via Biacore analysis. […] FIG. 6, Panels A-D show the results for human DR5. FIG. 6, Panels E-H show the results for cynomolgus monkey DR5.

[2] = cited from earlier work
COLO205 = assay: […]-GLO cell viability assay with vorinostat; assay type: cell-based; conditions: for Average % Ctrl: one day
Protocol: For the first study COLO205 cells were plated at 2×10^4 cells/well (in 96-well plates), and incubated overnight in F12/DMEM media supplemented with 10% FBS. […] Cell viability was determined using Promega […]-GLO® Luminescent Cell Viability Assay (Cat # G5430) essentially as described in the manufacturer's instructions to assay the amount of ATP present, which is a measure of the number of viable cells in the culture. Briefly, an […]-GLO® Reagent was added to the wells and mixed for two minutes to induce lysis and the luminescence was read in a in PerkinElmer EnVision multilabel plate reader.
Cell viability of cells treated with the test articles is normalized to the corresponding negative control (medium±vorinostat) which is set to 100% and reported in Table 12 as % of control for each test agent alone or % control for each test agent in combination with vorinostat. % of control values less than 100% indicate a reduction in viability and reflect the cytotoxicity of the test article alone or in combination with vorinostat.
The Net Gain (Average % Growth Inhibition)=% Medium Ctrl (10% FBS)−% Medium Ctrl (1/10 μM vorinostat), and represents increased cytotoxicity of the test article in combination with vorinostat over cells treated with vorinostat alone.

BT474 = assay: […]-GLO cell viability assay with vorinostat; assay type: cell-based; conditions: BT474 (Breast); 1 μg/ml + 10 μM Vorinostat
MCF7 = assay: […]-GLO cell viability assay with vorinostat; assay type: cell-based; conditions: MCF7 (Breast); 1 μg/ml + 10 μM Vorinostat
MDA-MB-361 = assay: […]-GLO cell viability assay with vorinostat; assay type: cell-based; conditions: MDA-MB-361 (Breast); 1 μg/ml + 10 μM Vorinostat
Hs746T = assay: […]-GLO cell viability assay with vorinostat; assay type: cell-based; conditions: Hs746T (Stomach); 1 μg/ml + 10 μM Vorinostat
HPAFII = assay: […]-GLO cell viability assay with vorinostat; assay type: cell-based; conditions: HPAFII (Pancreas); 1 μg/ml + 10 μM Vorinostat
A549 = assay: […]-GLO cell viability assay with vorinostat; assay type: cell-based, human; conditions: A549 (Lung); 1 μg/ml + 10 μM Vorinostat
ES2 = assay: […]-GLO cell viability assay with vorinostat; assay type: cell-based; conditions: ES2 (Ovary); 1 μg/ml + 10 μM Vorinostat
22RV1 = assay: […]-GLO cell viability assay with vorinostat; assay type: cell-based; conditions: 22RV1 (Prostate); 1 μg/ml + 10 μM Vorinostat
DU145 = assay: […]-GLO cell viability assay with vorinostat; assay type: cell-based, human; conditions: DU145 (Prostate); 1 μg/ml + 10 μM Vorinostat
LNCap = assay: […]-GLO cell viability assay with vorinostat; assay type: cell-based, human; conditions: LNCap (Prostate); 1 μg/ml + 10 μM Vorinostat
MDA-MB-175VII = assay: […]-GLO cell viability assay with vorinostat; assay type: cell-based; conditions: MDA-MB-175VII (Breast); 1 μg/ml + 1 μM Vorinostat
SKBR3 = assay: […]-GLO cell viability assay with vorinostat; assay type: cell-based, human; conditions: SKBR3 (Breast); 1 μg/ml + 1 μM Vorinostat
NCI-N87 = assay: […]-GLO cell viability assay with vorinostat; assay type: cell-based; conditions: NCI-N87 (Stomach); 1 μg/ml + 1 μM Vorinostat
AsPC1 = assay: […]-GLO cell viability assay with vorinostat; assay type: cell-based; conditions: AsPC1 (Pancreas); 1 μg/ml + 1 μM Vorinostat
Hs700T = assay: […]-GLO cell viability assay with vorinostat; assay type: cell-based; conditions: Hs700T (Pancreas); 1 μg/ml + 1 μM Vorinostat
786O = assay: […]-GLO cell viability assay with vorinostat; assay type: cell-based; conditions: 786O (Kidney); 1 μg/ml + 1 μM Vorinostat
Calu3 = assay: […]-GLO cell viability assay with vorinostat; assay type: cell-based; conditions: Calu3 (Lung); 1 μg/ml + 1 μM Vorinostat
SKOV3 = assay: […]-GLO cell viability assay with vorinostat; assay type: cell-based; conditions: SKOV3 (Ovary); 1 μg/ml + 1 μM Vorinostat
PC3 = assay: […]-GLO cell viability assay with vorinostat; assay type: cell-based; conditions: PC3 (Prostate); 1 μg/ml + 1 μM Vorinostat
[3] = test system: astrocytoma and leukemia cells; conditions: cited from earlier work
[4] = test system: engrafted breast cancer cells; conditions: cited from earlier work
[5] = a few patients; higher doses (20 mg per kg); cited from earlier work
histidine tagged TRAIL = histidine tagged TRAIL (Homo sapiens, UniProt P50591); assay: binding to TRAIL-His coat; conditions: 2 μg/mL biotinylated; 1 μg/mL TRAIL-His coat
Chain of histidine tagged TRAIL (P50591 114-281 limits assumed): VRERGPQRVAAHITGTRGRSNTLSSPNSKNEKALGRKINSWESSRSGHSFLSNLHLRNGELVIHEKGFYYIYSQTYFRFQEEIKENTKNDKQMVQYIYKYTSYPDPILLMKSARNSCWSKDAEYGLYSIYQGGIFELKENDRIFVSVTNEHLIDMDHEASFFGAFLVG
Protocol: The amount of immobilized biotinylated antibody was assessed.

Substance: DR5 mAb 3: drozitumab, known anti-human DR5 antibody; VL SEQ ID NO:54, VH SEQ ID NO:58
- Kd [1]: 0.0133 µM
- ka [1]: 3.3 × 10^6
- kd [1]: 4.4 × 10^−2

Substance: soluble TRAIL: soluble TRAIL preparations
- in vivo half-life [2]: approximately 30 minutes

Substance: R&D TRAIL/His: His-tagged TRAIL (R&D systems) used as a positive control [reference compound]
- Average % Ctrl (COLO205; Vorinostat 0 μM, % Medium Ctrl (10% FBS), 10 ng/ml tetravalent molecule or 1 μg/ml DR5 mAb): 68.7%
- Net Gain (Average % Growth Inhibition) (COLO205; Vorinostat 0.1 μM): 15%
- Average % Ctrl (COLO205; Vorinostat 0.1 μM, normalized to medium + vorinostat): 54.1%
- Net Gain (Average % Growth Inhibition) (COLO205; Vorinostat 1 μM): 24%
- Average % Ctrl (COLO205; Vorinostat 1 μM, normalized to medium + vorinostat): 44.8%
- Net Gain (Average % Growth Inhibition) (BT474): 50.24%
- Net Gain (Average % Growth Inhibition) (MCF7): 0.79%
- Net Gain (Average % Growth Inhibition) (MDA-MB-361): 64.85%
- Net Gain (Average % Growth Inhibition) (Hs746T): 31.81%
- Net Gain (Average % Growth Inhibition) (HPAFII): 46.71%
- Net Gain (Average % Growth Inhibition) (A549): 26.71%
- Net Gain (Average % Growth Inhibition) (ES2): 79.12%
- Net Gain (Average % Growth Inhibition) (22RV1): 8.91%
- Net Gain (Average % Growth Inhibition) (DU145): 4.57%
- Net Gain (Average % Growth Inhibition) (LNCap): 28.73%
- Net Gain (Average % Growth Inhibition) (MDA-MB-175VII): 24.17%
- Net Gain (Average % Growth Inhibition) (SKBR3): 43.10%
- Net Gain (Average % Growth Inhibition) (NCI-N87): 35.97%
- Net Gain (Average % Growth Inhibition) (AsPC1): 11.86%
- Net Gain (Average % Growth Inhibition) (Hs700T): 15.83%
- Net Gain (Average % Growth Inhibition) (786O): 31.16%
- Net Gain (Average % Growth Inhibition) (Calu3): 9.96%
- Net Gain (Average % Growth Inhibition) (SKOV3): 33.93%
- Net Gain (Average % Growth Inhibition) (PC3): 12.49%

Substance: DR5 mAb 4: conatumumab, known anti-human DR5 antibody; VL SEQ ID NO:62, VH SEQ ID NO:66
- Kd [1]: 0.0164 µM
- ka [1]: 2.5 × 10^6
- kd [1]: 4.1 × 10^−2

Substance: TRA-8/CS-1008: humanized anti-DR5 antibody (Daiichi Sankyo)
- antitumor activity in vitro [3]: high antitumor activity
- antitumor activity in vivo [4]: high antitumor activity

Substance: lexatumummab: anti-DR5 agonist antibody from Human Genome Sciences
- hepatotoxicity [5]: Hepatotoxicity with increased serum alanine aminotransferase, aspartate aminotransferase and bilirubin

Substance: DR5-Fc fusion: human DR5-Fc fusion protein, biotinylated, tested on TRAIL-His coat [reference compound]
- amount of immobilized biotinylated antibody (histidine tagged TRAIL): 0.288
